Test: benzyltriazole release flux rate test of membrane in 20 gallons tap water
Assay type: physicochemical
Settings: 80° F., 100 hour period
Protocol: The microbiocide component release flux rate through the membrane is defined as milligrams of microbiocide component released per hour through one square millimeter of membrane or mg./hr./mm^2. Because the release flux rate varies over a wide range and is at least sometimes relatively slow, a test using benzyltriazole has been developed to quantify certain release flux rates that may be useful in accordance with the present invention. This test is conducted as follows.
A tank with twenty (20) gallons of tap water is provided, together with a recirculating heater to give mixing and temperature control. […] Water samples are collected at regular intervals over a 100 hour period and are measured for benzyltriazole content. From these measurements, the benzyltriazole release flux rate of the membrane is determined. To illustrate, suppose 300 mg of benzyltriazole is released through 351 mm^2 of membrane area (exposed through an opening in the outermost wall of the container) in 100 hours. The benzyltriazole release flux rate

benzyltriazole release flux rate (membrane 27 of container 10, cellulose nitrate, average pore size about 20 to about 25 microns): about 0.049 mg/hr/min^2 | benzyltriazole release flux rate (membrane layers 127 of container 110, cellulose nitrate, pore size about 8 microns): about 0.025 mg/hr./mm^2
Substance: benzyltriazole

Source: patent US20140271756A1, “Controlled Release of Microbiocides” (priority 2013, published 2014)
